# Measured values as given in article PMC8617944, “Preclinical Pharmacokinetics and Acute Toxicity in Rats of 5-{[(2E)-3-Bromo-3-carboxyprop-2-enoyl]amino}-2-hydroxybenzoic Acid: A Novel 5-Aminosalicylic Acid Derivative with Potent Anti-Inflammatory Activity” (Molecules, 2021).
# Where “and” joins values, the source holds several entries; their conditions need not be identical. Identical values can stand only once. Entries after “also recorded” stand apart in the source; their conditions may differ. Like-named read-outs stand apart in the source and are kept apart here.
# Tests used:
# Wistar rats = experiment: Acute toxicity, up-and-down OECD method (Guideline 425); type: in vivo
# Procedure: (§1) For all experiments, rats were allowed to acclimatize to the lab conditions during one week prior to undergoing assays. For the pharmacokinetic studies, animals were randomly divided into three groups (n = 6, body weight 300 ± 20 g). Eight female rats were employed in the up-and-down acute toxicity procedure. The animals were fasted for 8 h before and 4 h after drug administration but always given free access to water.
# (§2) If the first animal dies, the second animal is given a lower dose. A dose progression factor of 3.2 can be used. […] The animals were monitored for 14 days post-dosing and then sacrificed. The LD50 values were calculated with AOTStatPgm.
# [1] = as above; type: in vivo; conditions: both sexes, rat, in vivo, Wistar rats, read-out: Median lethal dose (LD50)
# Procedure: as §1, §2
# [2] = Distribution of C1 in tissues; type: in vivo, Wistar rats; conditions: p.o. 75 mg/kg, 75 mg/kg; for concentration at 10 min / concentration at 30 min / concentration at 90 min / concentration at 3 h / concentration at 6 h: male, Wistar, rat, po
# Procedure: Fifteen male Wistar rats were distributed in five groups (n = 3) and rats were orally administered C1 at a single dose of 75 mg/kg. Subsequently, a group of animals was sacrificed (n = 3) at 10, 30, 90, 180, and 360 min. […] All tissues and organs were weighed on an analytical balance and immediately processed. Each tissue sample was homogenized with saline solution in a 1:3 (wt/v) ratio. The preparation process for analysis was the same as described above for plasma samples [57] (File S8).
# [3] = Small intestine, individual rats
smiles,measurement,setting,value
"O=C(/C=C(/Br)C(=O)O)Nc1ccc(O)c(C(=O)O)c1 [Compound C1, 5-{[(2E)-3-bromo-3-carboxyprop-2-enoyl]amino}-2-hydroxybenzoic acid]",GHS category,Wistar rats; i.p. route,4
same,macroscopic changes at necropsy,"Wistar rats; liver, small intestine, colon, heart, spleen, stomach, kidneys",no macroscopic changes were observed; also recorded: non-macroscopic changes
same,GHS category,Wistar rats; p.o. route,5
same,signs of toxicity,"Wistar rats; p.o. route, 14 days",did not show any signs of apparent toxicity
same,LD50 at 14 days,[1]; ip,> 1100 mg/kg
same,LD50 at 14 days,[1]; po,> 2000 mg/kg
same,"Concentration (µg/mL) at 30 minutes, Rat 1-3","[2]; Brain, individual rats",4.1 µg/mL and 3.2 µg/mL
same,"Concentration (µg/mL) at 90 minutes, Rat 1-3","[2]; Brain, individual rats",3.3 µg/mL and 3.8 µg/mL
same,"Concentration (µg/mL) at 3 h, Rat 1-3","[2]; Brain, individual rats",1.9 µg/mL and 3.2 µg/mL
same,"Concentration (µg/mL) at 6 h, Rat 1-3","[2]; Brain, individual rats",3.0 µg/mL
same,"Concentration (µg/mL) at 10 minutes, Rat 1-3","[2]; Colon, individual rats",7.5 µg/mL and 9.4 µg/mL
same,"Concentration (µg/mL) at 30 minutes, Rat 1-3","[2]; Colon, individual rats",10.6 µg/mL and 8.5 µg/mL and 3.9 µg/mL
same,"Concentration (µg/mL) at 90 minutes, Rat 1-3","[2]; Colon, individual rats",7.9 µg/mL and 6.8 µg/mL
same,"Concentration (µg/mL) at 3 h, Rat 1-3","[2]; Colon, individual rats",3.6 µg/mL and 6.1 µg/mL and 7.5 µg/mL
same,"Concentration (µg/mL) at 10 minutes, Rat 1-3","[2]; Hearth, individual rats",8.0 µg/mL and 1.3 µg/mL and 12.4 µg/mL
same,"Concentration (µg/mL) at 30 minutes, Rat 1-3","[2]; Hearth, individual rats",4.4 µg/mL and 2.6 µg/mL
same,"Concentration (µg/mL) at 90 minutes, Rat 1-3","[2]; Hearth, individual rats",3.9 µg/mL and 3.0 µg/mL
same,"Concentration (µg/mL) at 3 h, Rat 1-3","[2]; Hearth, individual rats",2.2 µg/mL and 4.0 µg/mL
same,"Concentration (µg/mL) at 10 minutes, Rat 1-3","[2]; Kidney, individual rats",14.1 µg/mL and 11.2 µg/mL and 22.6 µg/mL
same,"Concentration (µg/mL) at 30 minutes, Rat 1-3","[2]; Kidney, individual rats",9.1 µg/mL and 5.4 µg/mL
same,"Concentration (µg/mL) at 90 minutes, Rat 1-3","[2]; Kidney, individual rats",6.1 µg/mL and 4.7 µg/mL
same,"Concentration (µg/mL) at 3 h, Rat 1-3","[2]; Kidney, individual rats",4.2 µg/mL and 3.3 µg/mL and 6.8 µg/mL
same,"Concentration (µg/mL) at 10 minutes, Rat 1-3","[2]; Liver, individual rats",5.1 µg/mL and 4.4 µg/mL
same,"Concentration (µg/mL) at 30 minutes, Rat 1-3","[2]; Liver, individual rats",7.2 µg/mL and 6.4 µg/mL
same,"Concentration (µg/mL) at 90 minutes, Rat 1-3","[2]; Liver, individual rats",2.6 µg/mL and 5.6 µg/mL and 5.1 µg/mL
same,"Concentration (µg/mL) at 3 h, Rat 1-3","[2]; Liver, individual rats",5.0 µg/mL and 2.6 µg/mL and 7.0 µg/mL
same,"Concentration (µg/mL) at 10 minutes, Rat 1-3","[2]; Lung, individual rats",23.3 µg/mL and 6.2 µg/mL and 17.7 µg/mL
same,"Concentration (µg/mL) at 30 minutes, Rat 1-3","[2]; Lung, individual rats",14.6 µg/mL and 6.7 µg/mL and 10.9 µg/mL
same,"Concentration (µg/mL) at 90 minutes, Rat 1-3","[2]; Lung, individual rats",4.0 µg/mL and 13.3 µg/mL and 4.8 µg/mL
same,"Concentration (µg/mL) at 3 h, Rat 1-3","[2]; Lung, individual rats",3.9 µg/mL and 7.9 µg/mL and 10.0 µg/mL
same,"Concentration (µg/mL) at 30 minutes, Rat 1-3","[2]; Muscle, individual rats",4.0 µg/mL
same,"Concentration (µg/mL) at 90 minutes, Rat 1-3","[2]; Muscle, individual rats",3.3 µg/mL and 3.6 µg/mL
same,"Concentration (µg/mL) at 3 h, Rat 1-3","[2]; Muscle, individual rats",2.4 µg/mL and 2.6 µg/mL
same,"Concentration (µg/mL) at 30 minutes, Rat 1-3",[2]; [3],18.3 µg/mL and 23.9 µg/mL and 4.9 µg/mL
same,"Concentration (µg/mL) at 90 minutes, Rat 1-3",[2]; [3],14.1 µg/mL and 18.2 µg/mL
same,"Concentration (µg/mL) at 3 h, Rat 1-3",[2]; [3],15.4 µg/mL and 14.9 µg/mL
same,"Concentration (µg/mL) at 10 minutes, Rat 1-3","[2]; Spleen, individual rats",22.6 µg/mL and 42.7 µg/mL
same,"Concentration (µg/mL) at 30 minutes, Rat 1-3","[2]; Spleen, individual rats",15.6 µg/mL and 15.0 µg/mL
same,"Concentration (µg/mL) at 90 minutes, Rat 1-3","[2]; Spleen, individual rats",5.5 µg/mL and 17.1 µg/mL and 12.4 µg/mL
same,"Concentration (µg/mL) at 3 h, Rat 1-3","[2]; Spleen, individual rats",10.4 µg/mL and 4.7 µg/mL and 11.1 µg/mL
same,"Concentration (µg/mL) at 10 minutes, Rat 1-3","[2]; Stomach, individual rats",24.1 µg/mL and 10.3 µg/mL and 20.5 µg/mL
same,"Concentration (µg/mL) at 30 minutes, Rat 1-3","[2]; Stomach, individual rats",13.0 µg/mL and 11.8 µg/mL and 5.8 µg/mL
same,"Concentration (µg/mL) at 90 minutes, Rat 1-3","[2]; Stomach, individual rats",10.4 µg/mL and 8.4 µg/mL and 4.8 µg/mL
same,"Concentration (µg/mL) at 3 h, Rat 1-3","[2]; Stomach, individual rats",3.7 µg/mL and 8.5 µg/mL and 7.1 µg/mL
same,"Concentration (µg/mL) at 30 minutes, Rat 1-3","[2]; Testis, individual rats",4.8 µg/mL and 2.4 µg/mL
same,"Concentration (µg/mL) at 90 minutes, Rat 1-3","[2]; Testis, individual rats",2.7 µg/mL and 5.8 µg/mL and 3.5 µg/mL
same,"Concentration (µg/mL) at 3 h, Rat 1-3","[2]; Testis, individual rats",2.8 µg/mL and 3.2 µg/mL
same,concentration at 10 min,"[2]; brain, Brain, 10 min, n = 3, read-out: Average Concentration",3.7 µg/mL
same,concentration at 30 min,"[2]; brain, Brain, 30 min, n = 3, read-out: Average Concentration",3.5 µg/mL
same,concentration at 90 min,"[2]; brain, Brain, 90 min, n = 3, read-out: Average Concentration",3.4 µg/mL
same,concentration at 3 h,"[2]; brain, Brain, 3 h, n = 3, read-out: Average Concentration",2.8 µg/mL
same,concentration at 6 h,"[2]; brain, Brain, 6 h, n = 3, read-out: Average Concentration",2.5 µg/mL
same,concentration at 10 min,"[2]; brain, Brain, individual rats, read-out: Concentration (µg/mL) at 10 minutes, Rat 1-3",4.1 µg/mL
same,concentration at 30 min,"[2]; brain, Brain, individual rats, read-out: Concentration (µg/mL) at 30 minutes, Rat 1-3",3.2 µg/mL
same,concentration at 90 min,"[2]; brain, Brain, individual rats, read-out: Concentration (µg/mL) at 90 minutes, Rat 1-3",3.1 µg/mL
same,concentration at 3 h,"[2]; brain, Brain, individual rats, read-out: Concentration (µg/mL) at 3 h, Rat 1-3",3.2 µg/mL
same,concentration at 6 h,"[2]; brain, Brain, individual rats, read-out: Concentration (µg/mL) at 6 h, Rat 1-3",2.2 µg/mL
same,concentration at 10 min,"[2]; colon, Colon, 10 min, n = 3, read-out: Average Concentration",10.3 µg/mL
same,concentration at 30 min,"[2]; colon, Colon, 30 min, n = 3, read-out: Average Concentration",7.6 µg/mL
same,concentration at 90 min,"[2]; colon, Colon, 90 min, n = 3, read-out: Average Concentration",6.3 µg/mL
same,concentration at 3 h,"[2]; colon, Colon, 3 h, n = 3, read-out: Average Concentration",5.7 µg/mL
same,concentration at 6 h,"[2]; colon, Colon, 6 h, n = 3, read-out: Average Concentration",6 µg/mL
same,concentration at 10 min,"[2]; colon, Colon, individual rats, read-out: Concentration (µg/mL) at 10 minutes, Rat 1-3",14.2 µg/mL
same,concentration at 90 min,"[2]; colon, Colon, individual rats, read-out: Concentration (µg/mL) at 90 minutes, Rat 1-3",4.2 µg/mL
same,concentration at 10 min,"[2]; heart, Hearth, 10 min, n = 3, read-out: Average Concentration",7.2 µg/mL
same,concentration at 30 min,"[2]; heart, Hearth, 30 min, n = 3, read-out: Average Concentration",3.6 µg/mL
